Measured values from article PMC7490411 (Signal Transduction and Targeted Therapy, 2020).

Tests used:
BMX = biological target: T1, BMX (Homo sapiens, UniProt P51813); test: ADP-Glo biochemical kinase assay
T1 construct: purchased Invitrogen (Carlsbad, CA, USA)
T1 sequence (P51813 1-675): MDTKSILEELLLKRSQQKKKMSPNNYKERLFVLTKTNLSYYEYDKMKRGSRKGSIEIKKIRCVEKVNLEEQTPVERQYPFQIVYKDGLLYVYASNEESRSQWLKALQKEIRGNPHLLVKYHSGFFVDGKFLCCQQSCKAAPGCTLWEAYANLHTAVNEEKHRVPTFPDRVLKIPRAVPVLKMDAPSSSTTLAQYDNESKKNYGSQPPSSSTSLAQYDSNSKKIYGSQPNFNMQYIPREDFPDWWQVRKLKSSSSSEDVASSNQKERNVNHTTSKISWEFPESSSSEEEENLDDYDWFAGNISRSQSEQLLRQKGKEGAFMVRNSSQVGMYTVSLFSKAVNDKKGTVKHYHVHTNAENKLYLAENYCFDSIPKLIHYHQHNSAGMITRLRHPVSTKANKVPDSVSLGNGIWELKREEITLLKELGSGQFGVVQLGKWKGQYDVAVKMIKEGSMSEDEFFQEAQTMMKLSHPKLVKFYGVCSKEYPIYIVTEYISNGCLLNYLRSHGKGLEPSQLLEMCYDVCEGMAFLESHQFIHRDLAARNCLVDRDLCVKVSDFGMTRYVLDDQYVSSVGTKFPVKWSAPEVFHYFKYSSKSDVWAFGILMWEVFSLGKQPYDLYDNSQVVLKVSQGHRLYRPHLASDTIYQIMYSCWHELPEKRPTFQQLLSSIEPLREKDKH
Description: (§1) The biochemical tests of BMX, BLK, JAK3, TXK, HER2, HER4, ITK, EGFR, and BTK were provided by Invitrogen (Carlsbad, CA, USA).

EGFR = biological target: T2, EGFR (Homo sapiens, UniProt P00533); test: ADP-Glo biochemical kinase assay
T2 construct: purchased Invitrogen (Carlsbad, CA, USA)
Description: as §1

HER2 = biological target: T3, HER2 (Homo sapiens, UniProt P04626); test: ADP-Glo biochemical kinase assay
T3 construct: purchased Invitrogen (Carlsbad, CA, USA)
Description: as §1

ITK = biological target: T4, ITK (Homo sapiens, UniProt Q08881); test: ADP-Glo biochemical kinase assay
T4 construct: purchased Invitrogen (Carlsbad, CA, USA)
T4 sequence (Q08881 1-620): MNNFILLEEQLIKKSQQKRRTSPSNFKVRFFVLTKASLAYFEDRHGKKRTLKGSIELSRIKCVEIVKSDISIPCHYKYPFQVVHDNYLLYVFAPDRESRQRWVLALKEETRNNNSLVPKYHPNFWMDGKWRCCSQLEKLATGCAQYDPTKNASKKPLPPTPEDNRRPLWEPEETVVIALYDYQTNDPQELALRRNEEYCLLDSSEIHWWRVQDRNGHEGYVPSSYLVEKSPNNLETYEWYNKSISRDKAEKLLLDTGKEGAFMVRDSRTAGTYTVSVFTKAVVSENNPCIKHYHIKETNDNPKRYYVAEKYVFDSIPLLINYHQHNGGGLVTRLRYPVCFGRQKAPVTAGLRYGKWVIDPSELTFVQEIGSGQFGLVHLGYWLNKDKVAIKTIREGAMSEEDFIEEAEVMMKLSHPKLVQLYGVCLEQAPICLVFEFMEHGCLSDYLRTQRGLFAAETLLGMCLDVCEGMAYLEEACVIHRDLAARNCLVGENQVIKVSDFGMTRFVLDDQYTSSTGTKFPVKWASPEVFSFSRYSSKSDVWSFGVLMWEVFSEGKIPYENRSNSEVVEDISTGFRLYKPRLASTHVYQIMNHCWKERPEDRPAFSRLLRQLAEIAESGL
Description: as §1

JAK3 = biological target: T5, JAK3 (Homo sapiens, UniProt P52333); test: ADP-Glo biochemical kinase assay; conditions: read-out: IC50 against JAK3
T5 construct: purchased Invitrogen (Carlsbad, CA, USA)
Description: as §1

TXK = biological target: T6, TXK (Homo sapiens, UniProt P42681); test: ADP-Glo biochemical kinase assay; conditions: read-out: IC50 against TXK
T6 construct: purchased Invitrogen (Carlsbad, CA, USA)
Description: as §1

[1] = system: ABL1(M351T)-phosphorylated; test: KINOMEscan; format: binding; conditions: 1000 nM
ACVR1B = test: KINOMEscan; format: binding; conditions: 1000 nM
ACVR2A = test: KINOMEscan; format: binding; conditions: 1000 nM
BRAF = test: KINOMEscan; format: binding; conditions: 1000 nM
BRSK1 = test: KINOMEscan; format: binding; conditions: 1000 nM
CSNK1A1 = test: KINOMEscan; format: binding; conditions: 1000 nM
DCAMKL2 = test: KINOMEscan; format: binding; conditions: 1000 nM
ERK4 = test: KINOMEscan; format: binding; conditions: 1000 nM
FGFR4 = test: KINOMEscan; format: binding; conditions: 1000 nM
FLT4 = test: KINOMEscan; format: binding; conditions: 1000 nM
FYN = test: KINOMEscan; format: binding; conditions: 1000 nM
GSK3A = test: KINOMEscan; format: binding; conditions: 1000 nM
HPK1 = test: KINOMEscan; format: binding; conditions: 1000 nM
IRAK4 = test: KINOMEscan; format: binding; conditions: 1000 nM
LRRK2 = test: KINOMEscan; format: binding; conditions: 1000 nM
MAP3K3 = test: KINOMEscan; format: binding; conditions: 1000 nM
PFPK5(P.falciparum) = test: KINOMEscan; format: binding; conditions: 1000 nM
PHKG2 = test: KINOMEscan; format: binding; conditions: 1000 nM
PIK3CA = test: KINOMEscan; format: binding; conditions: 1000 nM
PIK3CA(Q546K) = test: KINOMEscan; format: binding; conditions: 1000 nM
PIM3 = test: KINOMEscan; format: binding; conditions: 1000 nM
RAF1 = test: KINOMEscan; format: binding; conditions: 1000 nM
RET = test: KINOMEscan; format: binding; conditions: 1000 nM

T2 sequence (P00533 25-1210): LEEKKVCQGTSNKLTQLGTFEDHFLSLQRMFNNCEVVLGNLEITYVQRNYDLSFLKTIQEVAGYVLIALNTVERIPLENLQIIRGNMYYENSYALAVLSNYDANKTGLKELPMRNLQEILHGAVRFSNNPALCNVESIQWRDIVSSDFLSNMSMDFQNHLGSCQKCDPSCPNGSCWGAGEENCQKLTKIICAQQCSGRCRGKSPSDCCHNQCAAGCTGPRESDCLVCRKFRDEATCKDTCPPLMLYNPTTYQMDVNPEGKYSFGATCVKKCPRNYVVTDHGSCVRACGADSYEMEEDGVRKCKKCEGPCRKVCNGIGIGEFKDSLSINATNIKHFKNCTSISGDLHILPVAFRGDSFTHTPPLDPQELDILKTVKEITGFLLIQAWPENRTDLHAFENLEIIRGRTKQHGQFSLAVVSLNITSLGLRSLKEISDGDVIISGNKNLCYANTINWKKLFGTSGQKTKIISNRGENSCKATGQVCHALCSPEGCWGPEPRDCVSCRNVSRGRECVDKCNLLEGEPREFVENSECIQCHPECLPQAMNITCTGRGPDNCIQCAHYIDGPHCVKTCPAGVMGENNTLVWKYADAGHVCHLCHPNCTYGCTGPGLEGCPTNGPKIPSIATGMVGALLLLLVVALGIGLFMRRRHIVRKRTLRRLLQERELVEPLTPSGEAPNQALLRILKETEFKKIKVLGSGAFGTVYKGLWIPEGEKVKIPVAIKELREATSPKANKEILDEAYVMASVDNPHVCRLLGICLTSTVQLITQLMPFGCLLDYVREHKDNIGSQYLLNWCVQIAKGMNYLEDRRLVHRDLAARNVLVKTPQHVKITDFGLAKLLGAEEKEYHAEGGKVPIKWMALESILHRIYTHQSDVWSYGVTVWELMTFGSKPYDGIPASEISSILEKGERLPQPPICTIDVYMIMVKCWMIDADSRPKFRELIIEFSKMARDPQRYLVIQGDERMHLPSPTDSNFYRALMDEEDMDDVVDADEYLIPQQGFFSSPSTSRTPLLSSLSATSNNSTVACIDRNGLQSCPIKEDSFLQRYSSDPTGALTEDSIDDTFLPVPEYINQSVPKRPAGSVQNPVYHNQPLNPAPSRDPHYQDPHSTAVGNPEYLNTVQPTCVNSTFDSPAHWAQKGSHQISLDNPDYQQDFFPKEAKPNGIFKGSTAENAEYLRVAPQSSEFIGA
T3 sequence (P04626 23-1255): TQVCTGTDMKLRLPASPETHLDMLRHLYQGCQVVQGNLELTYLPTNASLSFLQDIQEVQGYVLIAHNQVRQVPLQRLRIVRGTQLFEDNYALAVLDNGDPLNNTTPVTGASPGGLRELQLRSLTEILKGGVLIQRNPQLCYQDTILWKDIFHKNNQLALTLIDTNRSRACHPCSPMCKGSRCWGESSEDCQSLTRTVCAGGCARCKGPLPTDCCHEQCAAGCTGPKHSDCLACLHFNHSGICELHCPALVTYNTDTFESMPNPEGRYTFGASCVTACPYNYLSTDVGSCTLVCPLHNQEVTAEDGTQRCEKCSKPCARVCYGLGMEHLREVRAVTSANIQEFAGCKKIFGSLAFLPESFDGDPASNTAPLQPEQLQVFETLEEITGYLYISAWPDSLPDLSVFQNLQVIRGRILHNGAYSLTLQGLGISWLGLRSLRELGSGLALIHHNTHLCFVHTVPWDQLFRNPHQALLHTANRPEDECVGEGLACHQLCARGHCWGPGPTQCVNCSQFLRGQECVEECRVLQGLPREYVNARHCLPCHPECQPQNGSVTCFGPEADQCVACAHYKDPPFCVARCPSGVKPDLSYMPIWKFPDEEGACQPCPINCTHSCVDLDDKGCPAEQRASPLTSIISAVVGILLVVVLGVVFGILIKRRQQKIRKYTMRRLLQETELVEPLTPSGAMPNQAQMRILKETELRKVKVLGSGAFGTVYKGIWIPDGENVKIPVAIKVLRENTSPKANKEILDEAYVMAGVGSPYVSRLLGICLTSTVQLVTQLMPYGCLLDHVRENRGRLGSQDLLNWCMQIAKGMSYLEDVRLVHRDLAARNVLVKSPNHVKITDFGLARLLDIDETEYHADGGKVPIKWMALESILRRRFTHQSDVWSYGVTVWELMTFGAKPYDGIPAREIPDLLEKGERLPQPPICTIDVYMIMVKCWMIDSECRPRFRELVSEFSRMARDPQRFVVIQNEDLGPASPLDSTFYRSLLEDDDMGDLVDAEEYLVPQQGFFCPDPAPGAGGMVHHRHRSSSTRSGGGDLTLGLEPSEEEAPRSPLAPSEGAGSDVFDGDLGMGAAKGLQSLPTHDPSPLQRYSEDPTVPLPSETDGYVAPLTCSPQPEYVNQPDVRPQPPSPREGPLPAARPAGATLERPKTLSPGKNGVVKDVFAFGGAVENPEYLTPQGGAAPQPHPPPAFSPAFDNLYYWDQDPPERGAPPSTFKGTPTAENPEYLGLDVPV
T5 sequence (P52333 whole entry): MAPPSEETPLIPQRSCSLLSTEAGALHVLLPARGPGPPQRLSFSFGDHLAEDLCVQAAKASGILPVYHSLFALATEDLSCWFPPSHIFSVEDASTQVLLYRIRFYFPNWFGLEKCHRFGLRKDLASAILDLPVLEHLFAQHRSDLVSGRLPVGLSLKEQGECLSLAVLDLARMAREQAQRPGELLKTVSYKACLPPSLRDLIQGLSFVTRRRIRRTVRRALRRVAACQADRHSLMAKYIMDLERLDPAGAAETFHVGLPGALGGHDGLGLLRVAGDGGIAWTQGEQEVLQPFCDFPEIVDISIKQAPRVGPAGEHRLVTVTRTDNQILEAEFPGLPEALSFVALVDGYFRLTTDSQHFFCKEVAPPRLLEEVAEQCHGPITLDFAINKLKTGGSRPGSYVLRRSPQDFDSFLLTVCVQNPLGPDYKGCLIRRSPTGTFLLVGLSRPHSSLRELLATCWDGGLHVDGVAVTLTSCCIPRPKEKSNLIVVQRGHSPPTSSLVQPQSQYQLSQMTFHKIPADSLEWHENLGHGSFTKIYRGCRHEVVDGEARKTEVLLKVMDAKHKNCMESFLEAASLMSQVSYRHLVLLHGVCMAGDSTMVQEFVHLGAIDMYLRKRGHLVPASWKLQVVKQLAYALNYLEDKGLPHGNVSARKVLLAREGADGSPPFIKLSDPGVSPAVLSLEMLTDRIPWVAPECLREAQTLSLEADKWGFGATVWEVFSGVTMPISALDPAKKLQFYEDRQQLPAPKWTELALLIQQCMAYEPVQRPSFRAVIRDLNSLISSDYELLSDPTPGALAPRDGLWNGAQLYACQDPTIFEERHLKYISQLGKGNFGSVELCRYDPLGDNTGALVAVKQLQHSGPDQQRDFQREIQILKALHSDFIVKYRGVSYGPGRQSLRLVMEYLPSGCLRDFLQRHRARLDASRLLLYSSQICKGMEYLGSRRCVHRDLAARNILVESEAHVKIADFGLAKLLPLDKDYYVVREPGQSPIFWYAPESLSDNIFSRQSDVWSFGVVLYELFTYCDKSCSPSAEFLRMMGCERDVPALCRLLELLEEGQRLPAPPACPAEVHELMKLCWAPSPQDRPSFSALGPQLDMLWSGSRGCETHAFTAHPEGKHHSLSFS
T6 sequence (P42681 whole entry): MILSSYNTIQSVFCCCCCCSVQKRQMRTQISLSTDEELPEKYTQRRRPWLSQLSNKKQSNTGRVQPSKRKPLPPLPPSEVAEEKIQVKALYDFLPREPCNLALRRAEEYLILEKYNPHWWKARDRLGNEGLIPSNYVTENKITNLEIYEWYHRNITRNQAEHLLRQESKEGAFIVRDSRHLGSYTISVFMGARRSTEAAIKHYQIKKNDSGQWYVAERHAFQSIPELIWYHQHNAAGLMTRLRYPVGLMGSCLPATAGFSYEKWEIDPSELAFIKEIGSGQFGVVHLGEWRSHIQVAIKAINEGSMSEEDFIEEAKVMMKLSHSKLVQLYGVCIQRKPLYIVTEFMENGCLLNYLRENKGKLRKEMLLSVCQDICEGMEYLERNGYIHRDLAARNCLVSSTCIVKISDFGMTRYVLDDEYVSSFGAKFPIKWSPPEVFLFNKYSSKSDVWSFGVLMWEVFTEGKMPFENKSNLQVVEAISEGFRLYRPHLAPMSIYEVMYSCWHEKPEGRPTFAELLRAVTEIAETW

SMILES: C=CC(=O)Nc1cc(Nc2cc(-c3cccc(NC(=O)c4cc5c(s4)CCCC5)c3C)cn(C)c2=O)ccc1N1CCN(CC)CC1 [CHMFL-BTK-85]
- IC50 (BMX; read-out: IC50 against BMX): 0.12 ± 0.0037 µM
- selectivity over BMX (BMX; vs BTK): 10 fold
- IC50 (EGFR; read-out: IC50 against EGFR): > 10 µM
- selectivity over EGFR (EGFR; vs BTK): more than 1000 fold
- IC50 (HER2; read-out: IC50 against HER2): > 10 µM
- selectivity over HER2 (HER2; vs BTK): more than 1000 fold
- IC50 (ITK; read-out: IC50 against ITK): > 10 µM
- selectivity over ITK (ITK; vs BTK): more than 1000 fold
- IC50 (JAK3): 2.72 ± 0.045 µM
- IC50 (TXK): 3.313 ± 0.017 µM
- Percent Control [1]: 100%
- Percent Control (ACVR1B): 95%
- Percent Control (ACVR2A): 97%
- Percent Control (BRAF): 100%
- Percent Control (BRSK1): 100%
- Percent Control (CSNK1A1): 100%
- Percent Control (DCAMKL2): 88%
- Percent Control (ERK4): 100%
- Percent Control (FGFR4): 92%
- Percent Control (FLT4): 97%
- Percent Control (FYN): 74%
- Percent Control (GSK3A): 94%
- Percent Control (HPK1): 85%
- Percent Control (IRAK4): 100%
- Percent Control (LRRK2): 100%
- Percent Control (MAP3K3): 100%
- Percent Control (PFPK5(P.falciparum)): 100%
- Percent Control (PHKG2): 100%
- Percent Control (PIK3CA): 82%
- Percent Control (PIK3CA(Q546K)): 100%
- Percent Control (PIM3): 80%
- Percent Control (RAF1): 88%
- Percent Control (RET): 100%
